Data: paper PMC7179119, “A New Positron Emission Tomography Probe for Orexin Receptors Neuroimaging” (Molecules, 2020)
Where two headings read alike, the source gives them in different places.

What was measured:
Test in all cases: PDSP off-target radioligand binding assay
M4 = biological target: T1, M4 (Homo sapiens, UniProt P08173)
T1 sequence (P08173 1-479): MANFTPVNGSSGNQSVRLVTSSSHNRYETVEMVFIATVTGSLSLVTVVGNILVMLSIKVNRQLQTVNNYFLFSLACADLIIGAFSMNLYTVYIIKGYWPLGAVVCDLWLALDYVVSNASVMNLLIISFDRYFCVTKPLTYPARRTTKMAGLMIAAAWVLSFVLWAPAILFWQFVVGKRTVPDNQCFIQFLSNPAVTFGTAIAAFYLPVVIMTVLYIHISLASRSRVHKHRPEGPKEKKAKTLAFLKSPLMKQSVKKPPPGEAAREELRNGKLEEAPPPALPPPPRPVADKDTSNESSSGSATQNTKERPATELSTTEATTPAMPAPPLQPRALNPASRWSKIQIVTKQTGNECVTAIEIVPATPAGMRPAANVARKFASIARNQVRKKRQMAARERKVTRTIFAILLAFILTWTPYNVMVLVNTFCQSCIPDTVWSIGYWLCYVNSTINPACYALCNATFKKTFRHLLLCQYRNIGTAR
Method: (§1) Table S1. Off binding data of CW24.
(§2) The off-target binding assays were performed at PDSP with their standard protocol (https://pdspdb.unc.edu/pdspWeb/content/UNC-CH%20Protocol%20Book.pdf). In radioligand binding assays, CW24 was tested at a single concentration (10 µM) and in quadruplicate in 96-well plates. The binding assays were carried out in a final of volume of 125 µl per well in appropriate binding buffers. The hot ligand concentration is usually at a concentration close to the Kd (unless otherwise indicated). Total binding and nonspecific binding are determined in the absence and presence of 10 µM of the appropriate reference compound, respectively. In brief, plates are usually incubated at room temperature and in the dark for 90 mins. Reactions are stopped by vacuum filtration onto 0.3% polyethyleneimine (PEI) soaked 96-well filter mats using a 96-well Filtermate harvester, followed by three washes with cold wash buffers (for details, see Tables 2 to 24). Scintillation cocktail is then melted onto the microwave-dried filters on a hot plate and radioactivity is counted in a Microbeta counter.
(§3) Receptor % Inhibition 1 % Inhibition 2 % Inhibition 3 % Inhibition 4 Mean±SD %

H4 = H4 (Homo sapiens, UniProt Q9H3N8)
Chain of H4 (Q9H3N8 whole entry): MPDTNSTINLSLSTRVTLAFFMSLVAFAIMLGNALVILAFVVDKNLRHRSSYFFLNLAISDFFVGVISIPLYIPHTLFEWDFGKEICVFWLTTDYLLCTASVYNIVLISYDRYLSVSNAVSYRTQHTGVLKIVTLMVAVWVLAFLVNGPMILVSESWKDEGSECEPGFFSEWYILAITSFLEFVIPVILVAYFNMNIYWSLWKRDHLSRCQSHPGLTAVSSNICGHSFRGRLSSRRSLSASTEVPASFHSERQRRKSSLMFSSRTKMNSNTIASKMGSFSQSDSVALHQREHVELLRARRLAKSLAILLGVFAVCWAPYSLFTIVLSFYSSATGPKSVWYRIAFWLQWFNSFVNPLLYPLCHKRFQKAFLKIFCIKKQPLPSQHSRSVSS
Method: as §1, §2, §3

D4 = biological target: T2, D4 (Homo sapiens, UniProt P21917)
T2 construct: NIMH PDSP
T2 sequence (P21917 1-419): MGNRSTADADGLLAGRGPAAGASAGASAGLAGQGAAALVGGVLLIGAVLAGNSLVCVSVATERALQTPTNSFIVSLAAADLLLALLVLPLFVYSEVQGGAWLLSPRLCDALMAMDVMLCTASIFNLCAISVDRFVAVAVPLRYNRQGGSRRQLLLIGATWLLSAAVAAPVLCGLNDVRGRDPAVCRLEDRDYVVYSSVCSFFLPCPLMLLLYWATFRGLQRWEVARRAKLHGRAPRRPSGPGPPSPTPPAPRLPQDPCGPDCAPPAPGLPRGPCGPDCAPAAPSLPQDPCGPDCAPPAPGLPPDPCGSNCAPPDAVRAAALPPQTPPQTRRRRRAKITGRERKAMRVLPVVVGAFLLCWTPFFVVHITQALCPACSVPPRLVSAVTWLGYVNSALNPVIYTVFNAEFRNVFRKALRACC
Method: as §1, §2, §3

DOR = DOR (Homo sapiens, UniProt P41143)
Chain of DOR (P41143 whole entry): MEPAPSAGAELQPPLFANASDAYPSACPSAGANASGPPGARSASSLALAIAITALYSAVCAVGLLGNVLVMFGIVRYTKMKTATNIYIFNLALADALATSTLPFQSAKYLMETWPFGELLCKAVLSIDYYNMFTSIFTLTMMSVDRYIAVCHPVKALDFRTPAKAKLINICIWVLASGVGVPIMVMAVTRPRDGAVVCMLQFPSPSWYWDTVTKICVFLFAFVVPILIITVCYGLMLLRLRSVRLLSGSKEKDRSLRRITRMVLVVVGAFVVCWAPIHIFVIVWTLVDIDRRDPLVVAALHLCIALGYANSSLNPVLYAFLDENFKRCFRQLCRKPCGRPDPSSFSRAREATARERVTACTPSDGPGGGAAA
Method: as §1, §2, §3

5-HT5A = biological target: T3, 5-HT5A (Homo sapiens, UniProt P47898)
T3 construct: NIMH PDSP
T3 sequence (P47898 whole entry, species assumed): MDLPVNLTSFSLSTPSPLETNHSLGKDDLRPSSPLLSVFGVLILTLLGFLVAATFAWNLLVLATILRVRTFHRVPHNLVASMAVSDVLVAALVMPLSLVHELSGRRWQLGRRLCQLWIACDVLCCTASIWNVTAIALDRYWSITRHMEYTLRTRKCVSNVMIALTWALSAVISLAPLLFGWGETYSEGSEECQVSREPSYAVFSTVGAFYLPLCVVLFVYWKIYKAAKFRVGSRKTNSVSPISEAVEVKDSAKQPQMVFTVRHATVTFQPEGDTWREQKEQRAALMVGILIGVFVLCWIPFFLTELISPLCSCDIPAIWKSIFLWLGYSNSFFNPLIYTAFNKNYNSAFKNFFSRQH
Method: as §1, §2, §3

Alpha1A = biological target: T4, Alpha1A (Homo sapiens, UniProt P35348)
T4 construct: NIMH PDSP
T4 sequence (P35348 1-466): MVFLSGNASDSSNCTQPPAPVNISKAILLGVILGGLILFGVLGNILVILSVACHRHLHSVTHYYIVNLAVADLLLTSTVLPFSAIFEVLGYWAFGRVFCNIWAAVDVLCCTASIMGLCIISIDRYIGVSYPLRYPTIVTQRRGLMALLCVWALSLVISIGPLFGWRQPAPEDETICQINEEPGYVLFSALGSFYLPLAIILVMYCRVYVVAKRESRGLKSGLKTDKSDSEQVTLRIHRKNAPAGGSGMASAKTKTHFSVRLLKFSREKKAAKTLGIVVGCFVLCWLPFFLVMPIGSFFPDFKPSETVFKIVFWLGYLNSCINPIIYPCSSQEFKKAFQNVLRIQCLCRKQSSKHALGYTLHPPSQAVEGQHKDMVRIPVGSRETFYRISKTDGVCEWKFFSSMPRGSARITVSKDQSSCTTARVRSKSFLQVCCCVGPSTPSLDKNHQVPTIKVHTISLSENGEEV
Method: as §1, §2, §3

M3 = M3 (Homo sapiens, UniProt P20309)
Chain of M3 (P20309 whole entry): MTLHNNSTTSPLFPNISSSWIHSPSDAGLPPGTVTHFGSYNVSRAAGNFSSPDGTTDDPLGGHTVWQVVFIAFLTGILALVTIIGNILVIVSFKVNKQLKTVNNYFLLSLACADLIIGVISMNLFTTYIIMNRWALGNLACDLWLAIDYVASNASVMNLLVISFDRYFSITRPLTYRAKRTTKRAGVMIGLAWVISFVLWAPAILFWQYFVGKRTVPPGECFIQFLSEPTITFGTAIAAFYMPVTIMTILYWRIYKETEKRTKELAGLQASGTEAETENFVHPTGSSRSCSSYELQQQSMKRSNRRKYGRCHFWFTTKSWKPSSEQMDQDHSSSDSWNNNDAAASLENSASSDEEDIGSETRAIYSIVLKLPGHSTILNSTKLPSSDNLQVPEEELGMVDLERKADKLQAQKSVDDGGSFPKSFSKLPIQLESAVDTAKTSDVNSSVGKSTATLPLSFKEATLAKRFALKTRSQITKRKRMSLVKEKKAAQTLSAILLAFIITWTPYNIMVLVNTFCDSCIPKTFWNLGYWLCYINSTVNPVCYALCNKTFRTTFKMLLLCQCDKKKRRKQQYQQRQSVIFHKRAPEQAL
Method: as §1, §2, §3

[1] = quadruplicate, read-out: Mean±SD % inhibition
[2] = replicate 1, read-out: % Inhibition 1
[3] = replicate 2, read-out: % Inhibition 2
[4] = replicate 3, read-out: % Inhibition 3
[5] = replicate 4, read-out: % Inhibition 4

## COc1ccnc(N2CCC3(CCCN(Cc4cn(C)c5ccccc45)C3=O)CC2)n1 [CW24]
M4; [1]
  inhibition at 10 µM: -3.86 ± 14.8%
M4; [2]
  inhibition at 10 µM: 0.88%
M4; [3]
  inhibition at 10 µM: -23.9%
M4; [4]
  inhibition at 10 µM: -3.92%
M4; [5]
  inhibition at 10 µM: 11.5%
H4; [1]
  inhibition at 10 µM: 3.44 ± 8.21%
H4; [2]
  inhibition at 10 µM: -8.25%
H4; [3]
  inhibition at 10 µM: 9.91%
H4; [4]
  inhibition at 10 µM: 8.32%
H4; [5]
  inhibition at 10 µM: 3.76%
D4; [1]
  inhibition at 10 µM: 67.2 ± 5.6%
D4; [2]
  inhibition at 10 µM: 73.2%
D4; [3]
  inhibition at 10 µM: 70%
D4; [4]
  inhibition at 10 µM: 60.3%
D4; [5]
  inhibition at 10 µM: 65.3%
DOR; [1]
  inhibition at 10 µM: 13.9 ± 19.1%
DOR; [2]
  inhibition at 10 µM: 41%
DOR; [3]
  inhibition at 10 µM: 8.06%
DOR; [4]
  inhibition at 10 µM: 10.6%
DOR; [5]
  inhibition at 10 µM: -3.98%
5-HT5A; [1]
  inhibition at 10 µM: -4.44 ± 7.73%
5-HT5A; [2]
  inhibition at 10 µM: 5.59%
5-HT5A; [3]
  inhibition at 10 µM: -6.33%
5-HT5A; [4]
  inhibition at 10 µM: -13.1%
5-HT5A; [5]
  inhibition at 10 µM: -3.89%
Alpha1A; [1]
  inhibition at 10 µM: -7.99 ± 16.7%
Alpha1A; [2]
  inhibition at 10 µM: 17%
Alpha1A; [3]
  inhibition at 10 µM: -16.2%
Alpha1A; [4]
  inhibition at 10 µM: -17.6%
Alpha1A; [5]
  inhibition at 10 µM: -15.1%
M3; [1]
  inhibition at 10 µM: -9.56 ± 5.94%
M3; [2]
  inhibition at 10 µM: -5.69%
M3; [3]
  inhibition at 10 µM: -3.65%
M3; [4]
  inhibition at 10 µM: -12.4%
M3; [5]
  inhibition at 10 µM: -16.5%
